Data: paper PMC5749112 (The Journal of General Physiology, 2018)
“Also recorded” adds a separate entry of the source. Read-outs that look alike come from different tables or passages of the source.

Columns and labels:
PnuTSw = biological target: T1, PnuTSw (Shewanella woodyi, UniProt B1KPL9); type: binding; settings: for Dissociation constant Kd: WT PnuTSw in DDM, pH 8.0
T1 sequence (B1KPL9 1-212): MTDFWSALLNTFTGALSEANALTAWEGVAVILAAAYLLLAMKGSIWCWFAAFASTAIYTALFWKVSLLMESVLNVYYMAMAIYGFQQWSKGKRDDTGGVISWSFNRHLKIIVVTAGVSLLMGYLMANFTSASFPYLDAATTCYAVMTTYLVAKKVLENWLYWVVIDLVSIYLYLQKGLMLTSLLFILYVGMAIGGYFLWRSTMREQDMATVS

[1] = biological target: T2, PnuTSw reconstituted in proteoliposomes (Shewanella woodyi, UniProt B1KPL9); type: biochemical; settings: 1 mM unlabeled analogue in outside buffer, 500 nM [3H]thiamine
T2 sequence (B1KPL9 1-212): T1 sequence (B1KPL9 1-212)

[2] = biological target: T2, PnuTSw reconstituted in proteoliposomes; type: biochemical; settings: proteoliposomes loaded with 1 mM unlabeled ligand
PnuTSw mutant Y159F [3] = biological target: T3, PnuTSw mutant Y159F (Shewanella woodyi, UniProt B1KPL9, W159F); settings: ITC, 25°C
PnuTSw mutant Y162F [4] = biological target: T4, PnuTSw mutant Y162F (Shewanella woodyi, UniProt B1KPL9, W162F); settings: ITC, 25°C
PnuTSw mutant Y188A [5] = biological target: T5, PnuTSw mutant Y188A (Shewanella woodyi, UniProt B1KPL9, Y188A); settings: ITC, 25°C
PnuTSw mutant Y77A [6] = biological target: T6, PnuTSw mutant Y77A (Shewanella woodyi, UniProt B1KPL9, Y77A); settings: ITC, 25°C
PnuTSw mutant D166A = settings: ITC, 25°C
PnuTSw mutant W199A [7] = biological target: T7, PnuTSw mutant W199A (Shewanella woodyi, UniProt B1KPL9, W199A); settings: ITC, 25°C
PnuTSw mutant W88A [8] = biological target: T8, PnuTSw mutant W88A (Shewanella woodyi, UniProt B1KPL9, W88A); settings: ITC, 25°C
PnuTSw mutant W88A [9] = biological target: T8, PnuTSw mutant W88A; settings: proteoliposomes
PnuTSw mutant Y159F [10] = biological target: T3, PnuTSw mutant Y159F; test: biochemical
PnuTSw mutant Y162F [11] = biological target: T4, PnuTSw mutant Y162F; test: biochemical
PnuTSw mutant Y188A [12] = biological target: T5, PnuTSw mutant Y188A; test: biochemical
PnuTSw mutant Y77A [13] = biological target: T6, PnuTSw mutant Y77A; test: biochemical
PnuTSw mutant W199A [14] = biological target: T7, PnuTSw mutant W199A; test: biochemical
PnuTSw mutant W88A [15] = biological target: T8, PnuTSw mutant W88A; test: biochemical

T8 sequence (B1KPL9 1-212 W88A): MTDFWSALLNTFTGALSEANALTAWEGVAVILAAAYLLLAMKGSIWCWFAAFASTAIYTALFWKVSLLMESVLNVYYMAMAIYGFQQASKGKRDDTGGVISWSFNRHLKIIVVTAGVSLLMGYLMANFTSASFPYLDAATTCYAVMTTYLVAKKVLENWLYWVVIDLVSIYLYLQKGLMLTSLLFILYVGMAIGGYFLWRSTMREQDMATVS
T7 sequence (B1KPL9 1-212 W199A): as the sequence (B1KPL9 1-212 W88A) above, with A88W, W199A counted along it
T6 sequence (B1KPL9 1-212 Y77A): as the sequence (B1KPL9 1-212 W88A) above, with Y77A, A88W counted along it
T4 sequence (B1KPL9 1-212 W162F): as the sequence (B1KPL9 1-212 W88A) above, with A88W, W162F counted along it
T5 sequence (B1KPL9 1-212 Y188A): as the sequence (B1KPL9 1-212 W88A) above, with A88W, Y188A counted along it
T3 sequence (B1KPL9 1-212 W159F): as the sequence (B1KPL9 1-212 W88A) above, with A88W, W159F counted along it

## Cc1ncc(C[n+]2csc(CCOP(=O)(O)O)c2C)c(N)n1 [TMP, thiamine monophosphate]
PnuTSw; ITC, 25°C
  Dissociation constant Kd: binding could not be detected; also recorded: neither TMP nor TPP could bind; also recorded: No binding
[1]
  Inhibition of [3H]thiamine uptake: did not inhibit transport
[2]
  Counter flow of [3H]thiamine (transported substrate or not): did not trigger accumulation of the label

## Cc1ncc(C[n+]2csc(CCO[P@](=O)(O)OP(=O)(O)O)c2C)c(N)n1 [TPP, thiamine pyrophosphate]
PnuTSw; ITC, 25°C
  Dissociation constant Kd: binding could not be detected; also recorded: neither TMP nor TPP could bind; also recorded: No binding
[1]
  Inhibition of [3H]thiamine uptake: did not inhibit transport
[2]
  Counter flow of [3H]thiamine (transported substrate or not): did not trigger accumulation of the label

## Cc1ncc(C[n+]2csc(CCO)c2C)c(N)n1 [Thiamine, thiamine]
PnuTSw
  Kd: 12 ± 5 µM
PnuTSw; ITC, 25°C, WT PnuTSw
  ΔH: -6.45 ± 5.26 kcal/mol
  ΔS: 5 ± 71 J/mol/K
PnuTSw mutant Y159F [3]
  Dissociation constant Kd: neither of the mutations affected thiamine binding
PnuTSw mutant Y162F [4]
  Dissociation constant Kd: neither of the mutations affected thiamine binding
PnuTSw mutant Y188A [5]
  Dissociation constant Kd: did not affect the binding of thiamine
PnuTSw mutant Y77A [6]
  Dissociation constant Kd: did not affect the binding of thiamine
PnuTSw mutant D166A
  Dissociation constant Kd: could not be detected
PnuTSw mutant D166A; listed as thiamine
  Dissociation constant Kd: No binding
PnuTSw mutant W199A [7]
  Dissociation constant Kd: did not affect the binding of thiamine
PnuTSw mutant W88A [8]
  Dissociation constant Kd: did not affect the binding of thiamine
PnuTSw mutant W88A [9]
  Thiamine transport activity of mutant: unable to transport thiamine
PnuTSw mutant Y159F [10]
  Kd: 23 ± 2 µM
PnuTSw mutant Y162F [11]
  Kd: 26 ± 3 µM
PnuTSw mutant Y188A [12]
  Kd: 21 ± 2 µM
PnuTSw mutant Y77A [13]
  Kd: 17 ± 2 µM
PnuTSw mutant W199A [14]
  Kd: 12 ± 1 µM
PnuTSw mutant W88A [15]
  Kd: 13 ± 2 µM
